Earlier results, collected in PubChem BioAssay AID1259409 (Chemical Carcinogenesis Research Information System (CCRIS), 2018).

System: rodent chemically induced tumor inhibition, incidence and multiplicity
Test: CCRIS tumor inhibitor studies
Conditions: Carcinogen: 4-(METHYLNITROSAMINO)-1-(3-PYRIDYL)-1-BUTANONE, 64091-91-4, Dose [Inhibitor]: 0, Promoter: NONE USED

For `S=C=NCCCCCCc1ccccc1`, the “tumour outcome (control, treated, inhibition, significance)” value (1 UMOL 1/D FOR 4 D ADMINISTERED PRIOR TO CARCINOGEN TREATMENT (STUDY DURATION: 116 D), Route [Inhibitor]: GAVAGE, Species: MOUSE, Strain/Sex: STRAIN A, Target Tissue: Type of Lesion: LUNG: ADENOMA, Dose [Carcinogen]: 10 UMOL ONCE 2 HR AFTER FINAL DOSE OF INHIBITOR) is given as 100%, 0%, 100%, p<0.05, the “tumour outcome (control, treated, inhibition, significance)” value (5 UMOL 1/D FOR 4 D ADMINISTERED PRIOR TO CARCINOGEN TREATMENT (STUDY DURATION: 116 D), Route [Inhibitor]: GAVAGE, Species: MOUSE, Strain/Sex: STRAIN A, Target Tissue: Type of Lesion: LUNG: ADENOMA, Dose [Carcinogen]: 10 UMOL ONCE 2 HR AFTER FINAL DOSE OF INHIBITOR) is given as 100%, 5%, 95%, p<0.05 and the “tumour outcome (control, treated, inhibition, significance)” value (0.04 UMOL ONCE 2 HR PRIOR TO CARCINOGEN DOSE (STUDY DURATION: 16 WK), Route [Inhibitor]: GAVAGE, Species: MOUSE, Strain/Sex: STRAIN-A/FEMALE, Target Tissue: Type of Lesion: LUNG: ADENOMA, Dose [Carcinogen]: 10 UMOL IN 0.1 ML SALINE ONCE) is given as 100%, 100%, 0%, not significant. For the same molecule, the “tumour outcome (control, treated, inhibition, significance)” value (0.1 UMOL ONCE 2 HR PRIOR TO CARCINOGEN DOSE (STUDY DURATION: 16 WK), Route [Inhibitor]: GAVAGE, Species: MOUSE, Strain/Sex: STRAIN-A/FEMALE, Target Tissue: Type of Lesion: LUNG: ADENOMA, Dose [Carcinogen]: 10 UMOL IN 0.1 ML SALINE ONCE) was 100%, 100%, 0%, not significant, the “tumour outcome (control, treated, inhibition, significance)” value (0.2 UMOL ONCE 2 HR PRIOR TO CARCINOGEN DOSE (STUDY DURATION: 16 WK), Route [Inhibitor]: GAVAGE, Species: MOUSE, Strain/Sex: STRAIN-A/FEMALE, Target Tissue: Type of Lesion: LUNG: ADENOMA, Dose [Carcinogen]: 10 UMOL IN 0.1 ML SALINE ONCE) was 100%, 100%, 0%, not significant and the “tumour outcome (control, treated, inhibition, significance)” value (1 UMOL/G DIET FOR DURATION OF STUDY BEGINNING 1 WK PRIOR TO CARCINOGEN TREATMENT (STUDY DURATION: 112 WK), Route [Inhibitor]: ORAL, Species: RAT, Strain/Sex: F344/MALE, Target Tissue: Type of Lesion: HEMATOPOIETIC SYSTEM: LEUKEMIA OR LYMPHOMA, Dose [Carcinogen]: 2 PPM IN DRINKING WATER FOR 111 WK) was 26/56 (46%), 11/57 (19%), 59%, p=0.002. The “tumour outcome (control, treated, inhibition, significance)” value (1 UMOL/G DIET FOR DURATION OF STUDY BEGINNING 1 WK PRIOR TO CARCINOGEN TREATMENT (STUDY DURATION: 112 WK), Route [Inhibitor]: ORAL, Species: RAT, Strain/Sex: F344/MALE, Target Tissue: Type of Lesion: LIVER: ADENOMA, Dose [Carcinogen]: 2 PPM IN DRINKING WATER FOR 111 WK) was 2/55 (4%), 4/50 (8%), -100%, not significant, the “tumour outcome (control, treated, inhibition, significance)” value (1 UMOL/G DIET FOR DURATION OF STUDY BEGINNING 1 WK PRIOR TO CARCINOGEN TREATMENT (STUDY DURATION: 112 WK), Route [Inhibitor]: ORAL, Species: RAT, Strain/Sex: F344/MALE, Target Tissue: Type of Lesion: LIVER: CARCINOMA, Dose [Carcinogen]: 2 PPM IN DRINKING WATER FOR 111 WK) was 3/55 (5%), 1/50 (2%), 60%, not significant and the “tumour outcome (control, treated, inhibition, significance)” value (1 UMOL/G DIET FOR DURATION OF STUDY BEGINNING 1 WK PRIOR TO CARCINOGEN TREATMENT (STUDY DURATION: 112 WK), Route [Inhibitor]: ORAL, Species: RAT, Strain/Sex: F344/MALE, Target Tissue: Type of Lesion: LUNG: ADENOCARCINOMA, Dose [Carcinogen]: 2 PPM IN DRINKING WATER FOR 111 WK) was 23/56 (41%), 9/57 (16%), 61%, p=0.003. For the same molecule, the “tumour outcome (control, treated, inhibition, significance)” value (1 UMOL/G DIET FOR DURATION OF STUDY BEGINNING 1 WK PRIOR TO CARCINOGEN TREATMENT (STUDY DURATION: 112 WK), Route [Inhibitor]: ORAL, Species: RAT, Strain/Sex: F344/MALE, Target Tissue: Type of Lesion: LUNG: ADENOMA, Dose [Carcinogen]: 2 PPM IN DRINKING WATER FOR 111 WK) was 16/56 (29%), 6/57 (11%), 62%, p=0.015 and the “tumour outcome (control, treated, inhibition, significance)” value (1 UMOL/G DIET FOR DURATION OF STUDY BEGINNING 1 WK PRIOR TO CARCINOGEN TREATMENT (STUDY DURATION: 112 WK), Route [Inhibitor]: ORAL, Species: RAT, Strain/Sex: F344/MALE, Target Tissue: Type of Lesion: NASAL CAVITY: PAPILLOMA OR CARCINOMA, Dose [Carcinogen]: 2 PPM IN DRINKING WATER FOR 111 WK) was 1/48 (2%), 2/45 (4%), -100%, not significant.
